Reference: article PMC9694897 (Metabolites, 2022)

Legend:
[1] = ABTS free radical scavenging assay; settings: read-out: ABTS IC50
Description: To determine the radical scavenging activity of the compound, we added 3.0 mL of ABTS solution to 300 mL of the compound in a cuvette. By spectrophotometer, we measured the absorbance reduction one minute after the mixing of the solution and continued measuring it for 6 min. For positive control, ascorbic acid is used. We then repeated the assay three times and calculated the percent of inhibition according to the formula [35].

[2] = DPPH free radical scavenging assay
Description: Free radicals and 1,1-diphenyl, 2-picrylhydrazyl (DPPH) were used for the illustration of the free radical scavenging ability of the molecule. This assay involved the addition of different dilutions (250, 500 and 1000 μg/mL) of this compound to 0.004% methanolic solution of DPPH. […] Ascorbic acid, in this case, was used as a positive control. The percent activity was calculated according to the formula.

5-LOX = settings: read-out: IC50 5-LOX
Description: Using an established procedure, the 5-lipoxygenase activity was performed. […] Afterwards, the 5-lipoxygenase solution (10,000 Unit/mL) was prepared. Linoleic acid (80 Mm) was the substrate used for the 5-LOX assay. We also prepared phosphate buffer (50 Mm) with PH 6.3. WE dissolved the various concentrations of the compound in each 0.25 mL of phosphate buffer, then added 0.25 mL of lipoxygenase enzyme to it and incubated it at 25 °C for 5 min. […] We repeated this experiment three times. The standard drug used was Zileuton [36]. By using the following equation, percent inhibition was calculated: Percent inhibition=Absorbance of control−absorbance of sample/Absorbance of control×100

COX-2 = target: T1, COX-2 (Homo sapiens, UniProt P35354); test: biochemical
T1 sequence (P35354 18-604): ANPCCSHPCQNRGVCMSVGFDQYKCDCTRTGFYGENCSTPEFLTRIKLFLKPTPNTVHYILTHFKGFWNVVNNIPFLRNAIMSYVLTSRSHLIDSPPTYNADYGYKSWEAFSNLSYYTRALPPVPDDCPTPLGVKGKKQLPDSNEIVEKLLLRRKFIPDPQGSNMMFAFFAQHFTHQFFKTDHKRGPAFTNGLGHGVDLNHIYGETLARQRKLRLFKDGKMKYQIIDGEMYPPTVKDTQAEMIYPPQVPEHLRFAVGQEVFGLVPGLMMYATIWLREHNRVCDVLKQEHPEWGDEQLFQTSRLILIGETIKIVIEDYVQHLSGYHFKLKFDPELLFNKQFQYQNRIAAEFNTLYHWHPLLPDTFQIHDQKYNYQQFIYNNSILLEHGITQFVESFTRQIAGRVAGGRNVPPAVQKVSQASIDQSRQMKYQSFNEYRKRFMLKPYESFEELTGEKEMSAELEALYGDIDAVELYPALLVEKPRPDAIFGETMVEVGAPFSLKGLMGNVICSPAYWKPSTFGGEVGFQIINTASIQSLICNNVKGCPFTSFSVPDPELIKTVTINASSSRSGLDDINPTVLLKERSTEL

Human recombinant MAO-B = target: T2, Human recombinant MAO-B (Homo sapiens, UniProt P27338); test: MAO-B inhibition assay (Amplex Red)
T2 sequence (P27338 1-520): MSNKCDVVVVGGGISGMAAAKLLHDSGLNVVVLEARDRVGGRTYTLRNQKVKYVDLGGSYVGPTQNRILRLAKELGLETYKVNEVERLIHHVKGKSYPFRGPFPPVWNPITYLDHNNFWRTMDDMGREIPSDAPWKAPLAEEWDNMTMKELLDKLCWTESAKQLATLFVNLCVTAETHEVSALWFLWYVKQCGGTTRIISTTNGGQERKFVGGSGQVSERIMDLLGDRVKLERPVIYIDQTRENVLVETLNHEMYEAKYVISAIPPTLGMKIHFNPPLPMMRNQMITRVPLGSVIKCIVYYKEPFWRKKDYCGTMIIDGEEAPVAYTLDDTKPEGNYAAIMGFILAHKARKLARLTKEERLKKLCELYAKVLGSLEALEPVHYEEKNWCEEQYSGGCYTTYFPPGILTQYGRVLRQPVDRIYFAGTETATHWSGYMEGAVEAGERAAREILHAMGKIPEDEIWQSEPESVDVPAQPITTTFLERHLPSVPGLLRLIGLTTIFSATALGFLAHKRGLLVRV
Description: Human recombinant MAO-B enzymes used in this assay were obtained from insect cells. The substrate used for MAO-B enzyme is benzylamine hydrochloride. For all the enzymes reactions, as well as for dilutions sodium phosphate buffer (0.05 M), a PH of 7.4 is used. […] The activity of the test compound hMAO-B assay is determined by calculating its effect on H2O2 production from benzylamine while using an Amplex Red MAO assay kit (Invitrogen). In this assay, a volume of 0.1 mL sodium phosphate buffer (0.05 M) with a PH of 7.4, which contains different concentrations of the test compound (reference inhibitors or new compound) and a sufficient quantity of recombinant hMAO-B (0.5 μL, 71 Unit/mg) is incubated at 37 °C for 1 h in a 96-well plate. After incubating, the reaction was initiated by the addition of (final concentration) 200 μM Amplex Red reagent, 1 mM benzylamine hydrochloride and 1 Unit/mL horseradish peroxidase. The H2O2 production, and finally resorufin, was measured in a multi-detection microplate fluorescence reader (TECAN) at 37 °C and with an absorbance of 570 nm. […] Then, specific fluorescence absorbance was determined after subtracting the background activity, measured from the vials which contains all the components except hMAO-B, and was replaced by buffer solution [34].

eqBChE = target: T3, eqBChE (Equus caballus, UniProt P81908); test: Anti-cholinesterase assay (DTNB, spectrophotometric), BChE; format: biochemical, equine
T3 construct: The butyrylcholinesterase (BChE) is obtained from equine serum; from tissue; host or cells: equine serum
T3 sequence (P81908 whole entry): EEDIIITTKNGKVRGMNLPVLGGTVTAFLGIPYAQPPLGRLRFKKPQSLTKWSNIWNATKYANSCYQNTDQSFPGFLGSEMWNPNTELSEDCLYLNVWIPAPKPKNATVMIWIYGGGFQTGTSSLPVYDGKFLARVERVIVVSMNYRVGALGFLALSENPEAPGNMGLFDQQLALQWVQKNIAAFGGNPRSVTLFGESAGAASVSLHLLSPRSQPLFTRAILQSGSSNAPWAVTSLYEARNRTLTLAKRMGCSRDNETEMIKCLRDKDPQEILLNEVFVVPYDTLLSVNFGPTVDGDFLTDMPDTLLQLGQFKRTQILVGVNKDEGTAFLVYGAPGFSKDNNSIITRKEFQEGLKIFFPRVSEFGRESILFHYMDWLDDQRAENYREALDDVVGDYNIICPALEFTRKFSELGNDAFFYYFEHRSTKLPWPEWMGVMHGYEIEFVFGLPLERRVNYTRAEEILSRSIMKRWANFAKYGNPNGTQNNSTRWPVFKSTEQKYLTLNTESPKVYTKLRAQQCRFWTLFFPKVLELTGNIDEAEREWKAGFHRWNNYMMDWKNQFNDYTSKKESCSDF
Text: (§1) For the determination of anti-cholinesterase activity of the compounds, the acetylcholinesterase enzymes used were obtained from an electric eel. The butyrylcholinesterase (BChE) is obtained from equine serum. The principle of this assay is based on the hydrolysis of […] by the enzymes AChE and the hydrolysis of butyrylcholine iodide by the enzyme butyrylcholinesterase. This process of hydrolysis yields 5-thio-2-nitrobenzoate anion which then form a complex with DTNB (yellow color) which can be detected by spectrophotometer.
(§2) Then KOH was used for the adjustment of pH.
(§3) In each of these enzyme assays, the enzyme solution (5 μL) was added to the cuvette followed by the addition of the compound (205 μL), and finally DTNB reagents (5 μL) were added. The solution was maintained in a water bath at a temperature of 30 °C for 15 min, and then the substrate solution (5 μL) was added. […] The negative control consists of all the components except the compound. […] The absorbance, as well as the reaction time, were taken for 4 min at a temperature of 30 °C and were repeated in triplicate.

[3] = test system: carrageenan induced inflammation; test: In-vivo carrageenan method of inflammation (paw edema); design: species or system Albino mice; settings: flavone 10 mg/kg, aspirin 100 mg/kg
Text: (§4) The Albino mice with an average body weight of 25–30 g were obtained from NIH, Islamabad, Pakistan from our designed studies. The animals were kept in the animal house of the university and were kept under controlled conditions as per the standard guidelines. The animals were used in experiments according to the standard protocols as per the approval of Departmental Ethical Committee with approval letter number DREC-140 [36].
The progression of inflammation stimulated by carrageenan is a biphasic system. In the initial phase the serotonin and histamine were released, while in the second phase of swelling prostaglandin, bradykinin, leukotriene and lysozyme were mediated. The non-steroidal and steroidal drugs can wield their function in the second phase of the edema formation.
In the assay, animals were randomly divided into three groups with eight in each group. The first group, Group I, was the negative control and was given dimethyformamide 1% 10 mL/kg bw. […] The third group (Group III) was given 10 mg/kg bw of the isolated flavone. After ½ h, 1% of the saline solution of carrageenan (w/v, 0.05 mL) was given in a sub-planter area of the animals. Afterwards, the paw edema was determined with the help of a plethysmometer (Model LE 7500 plan. Lab SL) with different time intervals. The paw edema of the mice administered with flavone, and with those of the standard drug, were measured at different time intervals. The measurements of paw edema were compared with the mice serving as the negative control group. The percent inhibition activity was calculated as per the standard procedure.

[4] = test system: CCl4-induced oxidative stress markers (SOD, CAT, MDA, TP); test: In-vivo antioxidant markers in CCl4-induced oxidative stress; design: species or system Albino mice; settings: CCl4 treated mice
Text: as §4
In this assay, the experimental animals were divided into four groups with five animals in each group. Group I was given the corn oil as a vehicle. The remaining three groups ([…]) were given CCl4 in corn oil in a ratio of 1 to 5 (v/v) for the induction of oxidative stress. The two groups were given 5 and 10 mg/kg bw of the isolated flavone for two weeks. One day after the last administration, the animals were given IM zoletil50 (30 mg/kg bw) with xylazine (5 mg/kg bw) for about 10 min to get anesthetized. Afterwards, the blood sample was taken out by cardiac puncture into EDTA-tubes. After the experiments, the animals were euthanized as per the standard procedure. The blood (200 μL) was centrifuged for 10 min at the rate of 3000 rpm. The plasma was used for the biochemical studies. Afterwards, 0.9% of physiological saline was added to the cellular layer to double up the volume. Again, it was centrifuged under the same set of conditions and the upper layer was discarded. The experiments were repeated three times and erythrocytes were isolated. The isolated erythrocytes were stored at a low temperature (−20 °C). The vital organs like kidneys, liver and heart were harvested, washed and weighted.
The RBCs were employed in a cellular model to evaluate the potency of antioxidants to penetrate into the living cells from plasma.
The superoxide dismutase assay was performed as per the reported procedure. […] The reaction was initiated with the addition of adrenaline (0.3 mM, 0.3 mL) to the buffered mixture. This was mixed immediately and was subjected to a spectrophotometer as a sample cuvette. The solution of buffer (2.5 mL), substrate (0.3 mL) and distilled water (0.2 mL) were added in the reference cuvette. The increase in absorbance (480 nm) was monitored for 2.5 min with 30 sec intervals against a blank. The SOD was calculated as per the reported procedure.
The catalase assay on the isolated compound was performed as per the standard protocols. […] To each of these test tubes, potassium dichromate was added. The tubes were heated for 10 min up to 100 °C. The tubes were then allowed to cool down and optical density was measured at 570 nm. The standard curve of concentration vs. absorbance of H2O2 was plotted. Afterwards, haemolysate (1 mL) was diluted and added to the test tube containing H2O2 (2 mL) and phosphate buffer (2.5 mL, 0.01 M having pH 7.0) and were mixed. After every 30 sec, one ml of solution was withdrawn and was transferred to acidified potassium dichromate (2 mL) for 2 min. This was mixed and heated up to 100 °C for 10 min. The solution was then cooled down and optical density was measured (at 570 nm) against the blank. The catalase activity was calculated as per the standard method.
The lipid peroxidation was performed with malondialdehyde assay as per the reported methods. The diluted haemolysate (0.4 mL, 1:10 v/v) was added to the test tube containing acetic acid sodium hydroxide along with thiobarbituric acid, having a volume of 2 mL each. […] The activity was then calculated as per the standard method.
The total proteins assay of the experiment was performed as per the standard method. The diluted haemolysate (0.2 mL), bovine albumin (0.2 mL, 2 g/dl), distilled water (2 mL) and working reagent 1 mL (CuSO4 with NaK one part and Na2CO3 with NaOH 100 parts) were added in different test tubes. This was mixed and incubated at room temperature for 10 min. […] The absorbance was measured at 570 nm against the blank.

eeAChE = target: T4, eeAChE (Electrophorus electricus, UniProt O42275); test: biochemical
T4 construct: the acetylcholinesterase enzymes used were obtained from an electric eel; from tissue; host or cells: electric eel
T4 sequence (O42275 24-633): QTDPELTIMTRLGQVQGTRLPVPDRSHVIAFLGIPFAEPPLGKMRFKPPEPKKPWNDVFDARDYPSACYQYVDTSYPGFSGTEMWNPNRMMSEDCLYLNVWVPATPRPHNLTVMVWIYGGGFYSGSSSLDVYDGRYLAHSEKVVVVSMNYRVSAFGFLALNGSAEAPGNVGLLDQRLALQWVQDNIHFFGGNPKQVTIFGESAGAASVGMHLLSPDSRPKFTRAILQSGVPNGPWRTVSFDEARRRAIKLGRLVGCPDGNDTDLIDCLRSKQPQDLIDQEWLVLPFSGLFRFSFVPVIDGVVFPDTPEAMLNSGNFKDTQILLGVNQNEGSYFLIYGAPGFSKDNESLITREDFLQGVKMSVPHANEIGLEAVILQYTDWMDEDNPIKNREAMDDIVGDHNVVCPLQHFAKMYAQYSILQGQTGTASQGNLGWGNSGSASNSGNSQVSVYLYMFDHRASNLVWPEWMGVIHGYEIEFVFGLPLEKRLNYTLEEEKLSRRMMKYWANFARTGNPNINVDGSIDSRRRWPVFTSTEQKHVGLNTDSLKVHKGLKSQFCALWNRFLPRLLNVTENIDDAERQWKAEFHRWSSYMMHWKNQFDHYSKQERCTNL
Text: as §1, §2, §3

Acute toxicity = settings: mice, 25-2000 mg/kg b. wt, monitored 3 days
Text: as §4

In the case of C[C@H]1O[C@H](O[C@H]2[C@H](O)[C@@H](O)[C@@H](O[C@H]3[C@H](O)[C@@H](O)C(O)O[C@@H]3CO)O[C@@H]2CO)[C@H](O)[C@@H](O)[C@@H]1N[C@H]1C=C(CO)[C@@H](O)[C@H](O)[C@H]1O (some centres unmarked) [Acarbose, reference compound], the IC50 [1] is reported as 12.7 µM and the IC50 [2] is reported as 16 µM.

For COc1ccc(-c2oc3cc(O)ccc3c(=O)c2O)cc1OC [Isolated flavone, 2-(3,4-dimethoxyphenyl)-3,7-dihydroxy-4H-chromen-4-one], the IC50 (5-LOX) was 0.84 ± 0.13 µM, the IC50 (COX-2) was 0.38 ± 0.12 µM and the “SI (COX-2 selectivity)” value (COX-2) was 18.70. The IC50 (Human recombinant MAO-B) was 0.14 ± 0.01 µM, the IC50 (eqBChE) was 0.95 ± 0.04 µM and the SI (eqBChE) was 1.44. For the same compound, the “percent inhibition of paw edema” value ([3]; fifth h) was 45%, the “percent inhibition of paw edema” value ([3]; first hour) was 45% and the “percent inhibition of paw edema” value ([3]; fourth h) was 49%. The “percent inhibition of paw edema” value ([3]; second hour) was 47%, the “percent inhibition of paw edema” value ([3]; third h) was 42% and the IC50 [1] was 33.4 µM. For the same compound, the MDA blood levels ([4]; 5 mg/kg for two weeks) was 1.15 ± 0.05 µmol/L, the “SOD blood levels (second mention)” value ([4]; 5 mg/kg for two weeks) was 0.12 ± 0.02 UL/mg and the SOD levels ([4]; 5 mg/kg for two weeks) was 8.52 ± 0.51 UL/mg. The MDA blood levels ([4]; 10 mg/kg for two weeks) was 1.05 ± 0.03 µmol/L, the “SOD blood levels (second mention)” value ([4]; 10 mg/kg for two weeks) was 0.12 ± 0.32 UL/mg and the SOD levels ([4]; 10 mg/kg for two weeks) was 9.58 ± 0.41 UL/mg. The TP levels ([4]; treated groups versus CCl4 group) was “significantly changed”, the IC50 (eeAChE) was 1.37 ± 0.01 µM and the “safety in animals (acute toxicity)” value (Acute toxicity) was “safe”. For the same compound, the IC50 [2] was 44.3 µM.

For CC(=O)Oc1ccccc1C(=O)O [Aspirin, reference compound], the “percent inhibition of paw edema” value ([3]; fifth h) was 57.64%, the “percent inhibition of paw edema” value ([3]; first hour) was 47.54% and the “percent inhibition of paw edema” value ([3]; fourth h) was 56.92%. The “percent inhibition of paw edema” value ([3]; second hour) was 54.63% and the “percent inhibition of paw edema” value ([3]; third h) was 53.26%.
